Counter-ions that a name gives are not always drawn.
Molecular target: T1, Mouse VCP (Mus musculus, UniProt Q01853)
T1 construct: histidine tag (N); made in house; host or cells: Sf-9 insect cells (baculovirus vector pVL1392)
Test: ATPase activity of purified His-tagged VCP, [γ-32P]ATP, liberated phosphate by liquid scintillation
Format: biochemical
Conditions: compounds of Comparative Examples; determined in the same manner as the Examples
Method: In one aspect, the effect of VCP regulators for regulating ATPase activity is determined, for example by the following exemplary assay. Mouse VCP cDNA (the amino acid sequence is completely identical among mouse, rat and human) is added with a DNA sequence corresponding to a histidine tag at the amino-terminal, subcloned into a baculovirus vector pVL1392 (BD Bioscience), and expressed in Sf-9 insect cells. The protein is purified with a nickel column. After the purification the concentration of the protein is adjusted to 0.25-0.5 μg/ml and the protein is stored in a solution containing 50 mM TrisCl pH 8.0, 5 mM EDTA, 10% glycerol, and 15 mM DTT at 4° C. 500 ng of the purified VCP is mixed with 100 μM [γ-^32P]ATP (18.5 GBq/mmol) and the test substance in 20 μL of ATPase buffer (20 mM HEPES (pH7.4), 50 mM KCl, 5 mM MgCl2, 15 mM DTT), and incubated at 37° C. for 10 minutes. The enzyme reaction is stopped with addition of 200 μL of an ice-cold solution containing 7% TCA and 1 mM K2HPO4. 50μ of a solution containing 3.75% ammonium molybdate and 0.02M tungstate silicic/3 N H2SO4 is added, followed by 300 μL of n-butylacetic acid, and then the liberated phosphate is extracted into the organic layer. The reaction tube is centrifuged for 5 minutes at 20,000 g to separate the aqueous layer and the organic layer, 200 μL of the organic layer is taken, and the beta ray radiated from the liberated phosphate is quantified with liquid scintillation counter. By measuring the ATPase activity in the presence of the test substance at various concentrations, ATPase inhibitory activity of the test substance is measured.
Mouse VCP cDNA was added with a DNA sequence corresponding to histidine tag at the amino-terminal, subcloned into a baculovirus vector pVL1392 (BD Bioscience), and expressed in Sf-9 insect cells. The protein was purified with a nickel column (GE Healthcare). The concentration of the protein was adjusted to 0.25-0.5 μg/ml and the protein was stored in a solution containing 50 mM TrisCl pH 8.0, 5 mM EDTA, 10% glycerol, and 15 mM DTT.
The ATPase activity was determined as follows. 500 ng of the purified VCP was mixed with 100 μM [γ-32P]ATP (18.5 GBq/mmol) and the test substance in 20 μL of ATPase buffer (20 mM HEPES (pH7.4), 50 mM KCl, 5 mM MgCl2, 15 mM DTT), and incubated at 37° C. for 10 minutes.
The enzyme reaction was stopped with addition of 200 μL of an ice-cold solution containing 7% TCA and 1 mM K2HPO4. 50μ of a solution containing 3.75% ammonium molybdate and 0.02M tungstate silicic/3 NH2SO4 was added, followed by 300 μL of n-butylacetic acid, and then the liberated phosphate was extracted into the organic layer. The reaction tube was centrifuged for 5 minutes at 20,000 g to separate the aqueous layer and the organic layer, 200 μL of the organic layer was taken, and the beta ray radiated from the liberated phosphate was quantified with liquid scintillation counter.
By measuring the ATPase activity in the presence of the test substance at various concentrations, ATPase inhibitory activity of the test substance was measured. IC50 of the each test substance was calculated by applying the measured values to the equation below using GraphPad Prism (GraphPad Software).

T1 sequence (Q01853 whole entry): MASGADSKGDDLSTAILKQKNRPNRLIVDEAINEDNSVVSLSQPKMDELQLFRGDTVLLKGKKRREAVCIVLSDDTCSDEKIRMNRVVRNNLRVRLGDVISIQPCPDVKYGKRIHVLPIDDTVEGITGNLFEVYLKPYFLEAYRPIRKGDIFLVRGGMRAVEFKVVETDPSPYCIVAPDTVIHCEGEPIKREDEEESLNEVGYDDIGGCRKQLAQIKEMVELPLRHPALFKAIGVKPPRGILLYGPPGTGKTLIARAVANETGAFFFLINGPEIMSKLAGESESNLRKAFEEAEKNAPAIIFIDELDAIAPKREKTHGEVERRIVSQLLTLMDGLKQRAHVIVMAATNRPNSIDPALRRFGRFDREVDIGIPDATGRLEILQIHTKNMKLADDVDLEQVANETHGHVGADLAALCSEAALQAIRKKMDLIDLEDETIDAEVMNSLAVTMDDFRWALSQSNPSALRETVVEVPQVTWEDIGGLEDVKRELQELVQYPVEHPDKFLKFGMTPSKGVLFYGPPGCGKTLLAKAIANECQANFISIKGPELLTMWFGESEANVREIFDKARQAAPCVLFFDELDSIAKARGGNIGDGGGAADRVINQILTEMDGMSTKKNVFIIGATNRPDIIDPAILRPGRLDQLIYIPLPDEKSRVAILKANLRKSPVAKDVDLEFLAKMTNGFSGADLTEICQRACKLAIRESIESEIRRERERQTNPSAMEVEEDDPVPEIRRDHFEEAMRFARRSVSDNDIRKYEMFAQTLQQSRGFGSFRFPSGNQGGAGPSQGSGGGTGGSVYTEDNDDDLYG

IC50 [nM] | Compound
> 100000 | Nc1ccc(-c2cccc3c2sc2ccccc23)nc1 [Example 30, sodium salt]

Same assay, conditions: compounds of Examples; ATPase inhibitory activity; 500 ng VCP, 100 μM ATP, 37° C., 10 minutes

Compound | IC50 [nM]
CCCCOc1ccccc1-c1ccc(/N=N/c2cc(S(=O)(=O)O)c3ccccc3c2N)cn1 [Example 60, 4-amino-3-[6-(2-butoxyphenyl)pyridine-3-ylazo]naphthalene-1-sulfonic acid sodium salt] | 250
Cc1cc(C)cc(-c2ccc(/N=N/c3cc(S(=O)(=O)O)c4ccccc4c3N)cn2)c1 [Example 35, 4-amino-3-[6-(3,5-dimethylphenyl)pyridine-3-ylazo]naphthalene-1-sulfonic acid sodium salt] | 632
Nc1c(/N=N/c2ccc(-c3ccccc3OCCCCCCO)nc2)cc(S(=O)(=O)O)c2ccccc12 [Example 64, 4-amino-3-{6-[2-(6-hydroxyhexyloxy)phenyl]pyridine-3-ylazo}naphthalene-1-sulfonic acid sodium salt] | 324
Cc1cc(F)ccc1-c1ccc(/N=N/c2cc(S(=O)(=O)O)c3ccccc3c2N)cn1 [Example 49, 4-amino-3-[6-(4-fluoro-2-methylphenyl)pyridine-3-ylazo]naphthalene-1-sulfonic acid sodium salt] | 330
Nc1c(/N=N/c2ccc(-c3cccs3)nc2)cc(S(=O)(=O)O)c2ccccc12 [Example 17, 4-amino-3-(6-thiophene-2-ylpyridine-3-ylazo)naphthalene-1-sulfonic acid sodium salt] | 143
Cc1cccc(-c2ccc(/N=N/c3cc(S(=O)(=O)O)c4ccccc4c3N)cn2)c1 [Example 9, 4-amino-3-(6-m-tolylpyridine-3-ylazo)naphthalene-1-sulfonic acid sodium salt] | 188
Nc1c(/N=N/c2ccc(-c3cccc(C(F)(F)F)c3)nc2)cc(S(=O)(=O)O)c2ccccc12 [Example 37, 4-amino-3-[6-(3-trifluoromethylphenyl)pyridine-3-ylazo]naphthalene-1-sulfonic acid sodium salt] | 726
Cc1cccc(C)c1-c1ccc(/N=N/c2cc(S(=O)(=O)O)c3ccccc3c2N)cn1 [Example 90, 4-amino-3-[6-(2,6-dimethylphenyl)pyridine-3-ylazo]naphthalene-1-sulfonic acid sodium salt] | 112
CSc1ccccc1/N=N/c1cc(S(=O)(=O)O)c2ccccc2c1N [Example 133, 4-amino-3-(2-methylsulfanylphenylazo)naphthalene-1-sulfonic acid sodium salt] | 518
CCCOc1ccccc1-c1ccc(/N=N/c2cc(S(=O)(=O)O)c3ccccc3c2N)cn1 [Example 48, 4-amino-3-[6-(2-propoxyphenyl)pyridine-3-ylazo]naphthalene-1-sulfonic acid sodium salt] | 127
Cc1ccc(F)c(-c2ccc(/N=N/c3cc(S(=O)(=O)O)c4ccccc4c3N)cn2)c1 [Example 59, 4-amino-3-[6-(2-fluoro-5-methylphenyl)pyridine-3-ylazo]naphthalene-1-sulfonic acid sodium salt] | 380
Nc1c(/N=N/c2ccc(-c3cccc4ccccc34)nc2)cc(S(=O)(=O)O)c2ccccc12 [Example 38, 4-amino-3-(6-naphthalene-1-ylpyridine-3-ylazo)naphthalene-1-sulfonic acid sodium salt] | 234
CCCOc1cccc(F)c1-c1ccc(/N=N/c2cc(S(=O)(=O)O)c3ccccc3c2N)cn1 [Example 56, 4-amino-3-[6-(2-fluoro-6-propoxyphenyl)pyridine-3-ylazo]naphthalene-1-sulfonic acid sodium salt] | 246
Cc1cc(C=O)c(OC(C)C)c(-c2ccc(/N=N/c3cc(S(=O)(=O)O)c4ccccc4c3N)cn2)c1 [Example 91, 4-amino-3-[6-(3-formyl-2-isopropoxy-5-methylphenyl)pyridine-3-ylazo]naphthalene-1-sulfonic acid sodium salt] | 212
Nc1c(/N=N/c2ccccc2)cc(S(=O)(=O)O)c2ccccc12 [Example 93, 4-amino-3-phenylazonaphthalene-1-sulfonic acid sodium salt] | 762

More lines, now with the values ahead:

IC50 [nM] | Compound
1220 | N#C/C(=C\c1ccc(/N=N/c2cc(S(=O)(=O)O)c3ccccc3c2N)cc1)c1ccccc1 [Example 143, 4-amino-3-[4-(2-cyano-2-phenylvinyl)phenylazo]naphthalene-1-sulfonic acid sodium salt]
1410 | Nc1c(/N=N/c2ccc(-c3cccc4c3Sc3ccccc3S4)nc2)cc(S(=O)(=O)O)c2ccccc12 [Example 76, 4-amino-3-(6-thianthrene-1-ylpyridine-3-ylazo)naphthalene-1-sulfonic acid sodium salt]
105 | N#Cc1cc(Cl)ccc1/N=N/c1cc(S(=O)(=O)O)c2ccccc2c1N [Example 118, 4-amino-3-(4-chloro-2-cyanophenylazo)naphthalene-1-sulfonic acid sodium salt]
1630 | Nc1c(/N=N/c2cccc([N+](=O)[O-])c2)cc(S(=O)(=O)O)c2ccccc12 [Example 96, 4-amino-3-(3-nitrophenylazo)naphthalene-1-sulfonic acid sodium salt]
502 | Nc1c(/N=N/c2ccc3ncccc3c2)cc(S(=O)(=O)O)c2ccccc12 [Example 147, 4-amino-3-(quinoline-6-ylazo)naphthalene-1-sulfonic acid sodium salt]
601 | Nc1c(/N=N/c2ccc(OCc3ccccn3)cc2)cc(S(=O)(=O)O)c2ccccc12 [Example 136, 4-amino-3-[4-(pyridine-2-ylmethoxy)phenylazo]naphthalene-1-sulfonic acid sodium salt]
90 | Nc1c(/N=N/c2ccc(-c3ccccc3OCCCNC(=O)c3cccnc3Cl)nc2)cc(S(=O)(=O)O)c2ccccc12 [Example 69, 4-amino-3-[6-(2-{3-[(2-chloropyridine-3-carbonyl)amino]propoxy}phenyl)pyridine-3-ylazo]naphthalene-1-sulfonic acid sodium salt]
26600 | CCOc1ccncc1/N=N/c1cc(S(=O)(=O)O)c2ccccc2c1N [Example 13, 4-amino-3-(4-ethoxypyridine-3-ylazo)naphthalene-1-sulfonic acid sodium salt]
366 | Nc1c(/N=N/c2ccc(-c3ccccc3OCCCNC(=O)c3ccnc(Cl)c3)nc2)cc(S(=O)(=O)O)c2ccccc12 [Example 77, 4-amino-3-[6-(2-{3-[(2-chloropyridine-4-carbonyl)amino]propoxy}phenyl)pyridine-3-ylazo]naphthalene-1-sulfonic acid sodium salt]
182 | CCOc1c(C=O)cc(C)cc1-c1ccc(/N=N/c2cc(S(=O)(=O)O)c3ccccc3c2N)cn1 [Example 149, 4-amino-3-[6-(2-ethoxy-3-formyl-5-methylphenyl)pyridine-3-ylazo]naphthalene-1-sulfonic acid sodium salt]
804 | Nc1c(/N=N/c2ccc(NC(=O)c3cccs3)cc2)cc(S(=O)(=O)O)c2ccccc12 [Example 97, 4-amino-3-[4-[(2-thienylcarbonyl)amino]phenylazo]-1-naphthalenesulfonic acid sodium salt]
2560 | COc1cc([N+](=O)[O-])ccc1/N=N/c1cc(S(=O)(=O)O)c2ccccc2c1N [Example 121, 4-amino-3-(2-methoxy-4-nitrophenylazo)naphthalene-1-sulfonic acid sodium salt]
